Data: US9181375B2, “Fluorescent potassium ion sensors” (ARIZONA BOARD OF REGENTS, A BODY CORPORATE OF THE STATE OF …, priority 2011, dated 2015)

What was measured:
U87MG cells [1] = assay: Cytotoxicity by Trypan blue staining; assay type: cell-based
Procedure: Cytotoxicity of 2(a) to human glioblastoma U87MG cells was studied using Trypan blue staining. To cell culture medium (100 μL) with eukaryotic cells in a 96 well microplate with 10,000 cells/well that had internalized 2(a) for 2 hours, […] of 0.4% Trypan Blue stain was added and mixed thoroughly with the medium. After standing for 5 min at room temperature (23° C.), the cells were imaged using an optical microscope in bright field mode. Dead cells appeared blue from the Trypan Blue stain, whereas healthy cells appeared transparent as a result of the cell's resistance to stain. The cells were then counted and the ratio of dead cells to live cells was calculated. Each experiment was repeated three times.
(§1) Cytotoxicity of the sensor 1(a) to cells was studied using Trypan blue staining. After 30 minutes internalization of the sensor with cells, more than 97% cells were viable, showing the non-cytotoxicity of 1(a) to the two cell lines under our experimental conditions.

[2] = Fluorescence response of sensors to other cations and pH in buffer (selectivity)
Procedure: (§2) To determine sensor responses, 50 μL of 2(a) (Example 10) was dissolved in DMSO resulting in a concentration of 200 μM which was then added into 2 mL of HEPES (10 mM, pH 7.2) buffer. […] Different metal ion concentrations were added into the solution for studying 2(a)'s responses. Although the reaction of the compound and the metal ion was rapid (usually within seconds), the spectra was measured after 2 minutes to ensure stability. 2(a)/metal ion complexes were excited at 561 nm and emissions were collected from 600 to 750 nm.
2(a) was also tested against physiological concentration levels of the following metal ions: K^+, Na^+, Ca^2+, Mg^2+, Fe^3+, Zn^2+, Mn^2+, and Cu^2+. […] Furthermore, this trend was also present when the concentrations of Na^+, Ca^2+, and Mg^2+ were increased to 140 mM (FIG. 9).
Na^+ is usually an interference ion to K^+ for the typical K^+ probes including PBFI, CD18, C18, and MCC.

[3] = Fluorescence titration of 1(a) with KCl in HEPES buffer, Benesi-Hildebrand plot; assay type: binding; details: 10 mM HEPES pH 7.4, excitation 450 nm, emission 525 nm
Procedure: FIGS. 17A and 17B show the UV-Vis and emission spectral changes upon the interaction of 1(a) with potassium chloride (KCl) in 10 mM HEPES buffer (pH 7.4). […] This fluorescence change was attributed to photo-induced electron transfer. The lone electron pairs of the amino groups in the triazacryptand ligand quench the emission of the fluorophore of the amino-naphthalimide through PET. After interaction with K^+, the lone electron pairs of the ligand were occupied due to the formation of the ligand-K^+ complex. This change restores the emission of the amino-naphthalimide fluorophore. Fluorescence intensity change at 525 nm was plotted again K^+ concentration, which is illustrated in FIG. 17C. Binding constant K could be determined by the fluorescence spectral change using the Benesi-Hildebrand equation as described above.
Curve fitting of the fluorescence intensity of 1(a) against the reciprocal of the K^+ concentration (1/[K^+]), the Benesi-Hildebrand plot, gives a linear fit (FIG. 17D).

CP-A cells [4] = assay: Cytotoxicity by Trypan blue staining; assay type: cell-based; details: 1(a) internalized for 30 minutes
Procedure: as §1

[5] = Fluorescence quantum yield against Rhodamine B standard; assay type: physicochemical
Procedure: The fluorescence quantum yields (η) of samples in solutions were recorded by using Rhodamine B in ethanol (η=0.65) excited at 540 nm and were calculated according to the following equation:
[formula] where (ηr) and (ηs) are the fluorescence quantum yields of standards and the samples, respectively. Ar and As are the absorbance of the standards and the measured samples at the excitation wavelength, respectively. Ir and Is are the integrated emission intensities of standards and the samples, respectively. nr and ns are the refractive indices of the corresponding solvents present in the solutions, respectively. The experimental error was approximately 10%.

[6] = Fluorescence titration of 2(a) with KCl in HEPES buffer, Benesi-Hildebrand plot; assay type: binding; details: HEPES pH 7.2
Procedure: as §2
2(a) is constructed using strong electron-donating (aniline) and electron-withdrawing (TCF) groups, yielding an absorption maximum at 560 nm. The extinction coefficient (s) at 560 nm is 3.84×10^4 M^−1 cm^−1. […] Upon addition of K^+, the fluorescence intensity of 2(a) increases by ca. 4 and 50 fold at K^+ concentrations of 140 mM and 1400 mM (FIGS. 8A and 8B), respectively, resulting in corresponding η of 0.52% and 5.6%. Kd was determined by the Benesi-Hildebrand equation: F0/(F0−F)=F0/(F0−Fcomplex)+F0/(F0−Fcomplex)×Kd×1/[M] (1) where F0 is the integrated fluorescence intensity of a free sensor, F is the observed integrated fluorescence intensity, Fcomplex is the emission of the ligand-metal ion complex, and [M] is the metal ion concentration. When F0/(F0−F) is plotted against 1/[M], the binding constant is given by the ratio intercept/slope. […]

U87MG cells [7] = assay: Intracellular K+ influx monitored with 2(a), confocal fluorescence, ImageJ; assay type: cell-based, human; details: isoproterenol 5 μM with 20 mM KCl in medium, 40 minutes, 37° C.; 2(a) 4 μM
Procedure: 2(a) can also be used to monitor K^+ influx through stimuli. […] The influx stimulator (isoproterenol in KCl-containing PBS buffer) was added. Final concentrations of the added isoproterenol and KCl in the cell culture medium were 5 μM and 20 mM, respectively.

U87MG cells [8] = assay: Intracellular K+ efflux monitored with 1(a), microplate reader; assay type: cell-based, human; details: cells loaded with 2 μM 1(a); nigericin 5 μM, bumetanide 10 μM, ouabain 10 μM; 2.5 h
Procedure: (§6) U87MG and CP-A cells were seeded onto 96 well plates at 10,000 cells per well and maintained in 100 μL medium overnight. The following day, the cells were loaded with 1(a) (2 μM) for 20 min, then the excess 1(a) was removed by washing with medium. The test substances were added and the experiment was terminated after 2.5 h by washing the cells with physiological NaCl solution. A microplate reader (Molecular Device, Downingtown, Pa.) was used to read the fluorescence intensities from the intracellular 1(a). 444 nm was used to excite the sensor and the emission was measured at 538 nm. The measured fluorescence intensities were corrected with background fluorescence. Each experiment was repeated in triplicate.
(§7) The decrease of the fluorescence intensities indicates the efflux of the intracellular potassium ions from the cells.

CP-A cells [9] = assay: as above; assay type: cell-based; details: cells loaded with 2 μM 1(a); nigericin 5 μM, bumetanide 10 μM, ouabain 10 μM; 2.5 h
Procedure: as §6, §7

U87MG cells [10] = assay: Dynamic K+ influx and efflux monitored with 2(a) after nigericin; assay type: cell-based, human; details: nigericin 20 μM in 20 mM KCl medium
Procedure: 2(a) was further tested for in-situ observation of dynamic potassium ion influx and then efflux through the changes of fluorescence (FIG. 15) stimulated by an ionophore nigericin. Cells internalized with 4 μM of 2(a) at 37° C. for 10 minutes were washed with 20 mM KCl-containing fresh medium. Nigericin (20 μM at its final concentration) was added in 20 mM KCl-containing medium to help K^+ to across cell membrane. Enhanced fluorescence was immediately observed after the addition of nigericin, indicating potassium ion influx occurred. The potassium influx peaked after 3 minutes with an average of fluorescence increase of 370%. After 3 minutes, potassium efflux was observed by the decrease of the fluorescence. The efflux stabilized after 15 minutes, and the fluorescence intensity after the stabilization was about 25% below that of before the stimulation by nigericin. The ionophore nigericin was used to stimulate K^+ influx for yeast Saccharomyces cerevisiae. It was also reported to be a K^+ efflux stimulator for human colorectal adenocarcinoma HT-29 cells.

E. coli = assay: K+ release from bacteria stimulated by lysozyme, measured with F4 film; assay type: cell-based, E. coli JM 109; details: lysozyme added to bacteria in 150 mM NaCl buffer pH 7.4, F4 film
Procedure: (§3) E. coli JM 109 and B. subtilis 168 were cultured overnight in LB medium (Difco®, Becton, Dickinson and Company, Sparks, Md.) by shaking at 180 rpm at 37° C. The concentration of E. coli and B. subtilis in culture was estimated by measuring the optical density at 600 nm (OD600). OD600 value of 1 indicated a concentration of 5.0×10^8 cfu/mL. After the microorganism density was determined, bacterial cells were collected by centrifuge at 2000×g for 20 minutes at room temperature. Then appropriate densities of bacteria were made using fresh buffer (150 mM NaCl, pH 7.4) to achieve the desired initial concentrations for experiments.
(§4) The F4 film (Example 16) was placed diagonally into quartz cuvettes with 2 mL of bacteria suspension at different densities. […] The potassium ion concentration was calculated from the measured fluorescence ratio (F/F0).
(§5) F4 film was used for both gram positive (i.e. B. subtilis) and negative (i.e. E. coli) bacteria and lysozyme was used as a model drug to stimulate K^+ efflux from the organisms. […] The washed organisms were resuspended in 2 mL of the potassium-free buffer in quartz cuvettes at a concentration range of 1.5×10^10 to 1.0×10^11 cfu/mL F4 was immersed into the above prepared mixtures, and then lysozyme was added into the cuvettes to stimulate the K^+ efflux, which was monitored through the time dependent fluorescence intensity changes of F4 film. […]

B. subtilis = assay: as above; assay type: cell-based, B. subtilis 168; details: lysozyme added to bacteria in 150 mM NaCl buffer pH 7.4, F4 film
Procedure: as §3, §4, §5

## C=CCN1C(=O)c2cccc3c(NCCc4ccc(N5CCOc6cc(C)ccc6N6CCOCCOCCN(CCOCCOCC6)c6ccc(C)cc6OCC5)c(OCCOC)c4)ccc(c23)C1=O [1(a)]
U87MG cells [1]; 1(a) internalized for 30 minutes, Trypan blue
  viable cells: more than 97%
[2]; 1(a), Na^+, Ca^2+, Mg^2+, Fe^3+, Zn^2+, Mn^2+, Cu^2+ at physiological concentrations (FIG. 17E)
  selectivity against biologically relevant metal ions: high selectivity
[3]
  binding constant (K): 0.133 mM⁻¹
CP-A cells [4]
  viable cells: more than 97%

## COCCOc1cc(/C=C/C2=C(C#N)C(=C(C#N)C#N)OC2(C)C)ccc1N1CCOc2cc(C)ccc2N2CCOCCOCCN(CCOCCOCC2)c2ccc(C)cc2OCC1 [2(a)]
U87MG cells [1]; human, 2 h
  viable cells: more than 97%
[2]; Na^+, Ca^2+, Mg^2+, Fe^3+, Zn^2+, Mn^2+, Cu^2+ at physiological levels, Na^+, Ca^2+, Mg^2+ also at 140 mM
  selectivity to K^+ against other metal ions: high selectivity
[2]; pH 5 to 8
  sensitivity to pH: not sensitive to pH in the range of 5 to 8
[5]; K^+ 140 mM
  quantum yield (η): 0.52%
[5]; K^+ 1400 mM
  quantum yield (η): 5.6%
[5]; free form, no K^+
  quantum yield (η): 0.11%
[6]; K^+ 140 mM
  fluorescence intensity increase upon addition of K^+: ca. 4 fold
[6]; K^+ 1400 mM
  fluorescence intensity increase upon addition of K^+: ~50 fold

## CC(C)NCC(O)c1ccc(O)c(O)c1 (stereo not shown) [isoproterenol]
U87MG cells [7]
  increase of average fluorescence intensity of cells after treatment: 33%

## CO[C@@H]1C[C@@H](C[C@H]2CC[C@H](C)[C@H]([C@@H](C)C(=O)O)O2)O[C@]2(O[C@](C)([C@H]3CC[C@@](C)([C@@H]4O[C@@H]([C@H]5O[C@@](O)(CO)[C@H](C)C[C@@H]5C)C[C@@H]4C)O3)C[C@H]2C)[C@@H]1C [nigericin]
U87MG cells [8]
  K^+ efflux, decrease of 1(a) fluorescence: not an efficient K^+ efflux stimulator
CP-A cells [9]
  K^+ efflux, decrease of 1(a) fluorescence: not an efficient K^+ efflux stimulator
U87MG cells [10]; efflux stabilized after 15 minutes
  fluorescence intensity after stabilization, below that before stimulation: about 25%
U87MG cells [10]; peak after 3 minutes, 2(a) 4 μM
  average fluorescence increase at peak of potassium influx: 370%

## lysozyme
E. coli
  K^+ efflux from bacteria over time: K^+ efflux increased slowly over time
B. subtilis
  K^+ efflux from bacteria over time: K^+ efflux was very fast, within the first 10 minutes
